According to ChEMBL document CHEMBL1140985, “Expanding the repertoire of small molecule transcriptional activation domains” (Bioorg Med Chem, 2009):

Legend:
Glucocorticoid receptor = biological target: T1, Glucocorticoid receptor (Homo sapiens, UniProt P04150); assay: Transcriptional activation of Gal4(1-147) tagged glucocorticoid receptor in human HeLa cells by luciferase reporter gene assay relative to OxDex-AEEA; type: cell-based
T1 sequence (P04150 whole entry): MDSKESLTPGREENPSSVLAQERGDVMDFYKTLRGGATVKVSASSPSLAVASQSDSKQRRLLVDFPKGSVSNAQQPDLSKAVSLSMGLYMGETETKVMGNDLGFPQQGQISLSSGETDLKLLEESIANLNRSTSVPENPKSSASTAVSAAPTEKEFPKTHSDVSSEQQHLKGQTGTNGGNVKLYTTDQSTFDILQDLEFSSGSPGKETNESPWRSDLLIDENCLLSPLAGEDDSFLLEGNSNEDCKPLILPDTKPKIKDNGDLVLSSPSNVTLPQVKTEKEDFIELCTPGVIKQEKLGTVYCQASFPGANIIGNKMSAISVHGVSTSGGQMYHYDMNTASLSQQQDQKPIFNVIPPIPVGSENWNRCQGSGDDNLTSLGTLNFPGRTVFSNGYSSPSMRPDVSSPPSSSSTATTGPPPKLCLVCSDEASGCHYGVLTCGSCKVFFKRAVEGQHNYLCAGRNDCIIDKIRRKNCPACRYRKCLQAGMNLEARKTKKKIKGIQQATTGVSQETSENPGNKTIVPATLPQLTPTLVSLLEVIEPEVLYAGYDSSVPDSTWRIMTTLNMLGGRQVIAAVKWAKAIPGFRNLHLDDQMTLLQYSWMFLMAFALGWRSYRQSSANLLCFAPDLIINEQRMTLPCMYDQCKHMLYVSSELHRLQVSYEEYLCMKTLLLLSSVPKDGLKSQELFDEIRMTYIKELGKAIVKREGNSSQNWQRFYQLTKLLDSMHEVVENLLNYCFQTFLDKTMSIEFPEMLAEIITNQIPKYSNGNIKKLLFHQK

[1] = biological target: T2, Glucocorticoid receptor (Homo sapiens) (UniProt P04150); assay: Transcriptional activation of Gal4(1-147) tagged glucocorticoid receptor in human HeLa cells at 1 uM by luciferase reporter gene assay relative to OxDex-AEEA; type: cell-based
T2 sequence (whole entry): T1 sequence (P04150 whole entry)

| EC50 (Glucocorticoid receptor) [nM] | fold change (FC) [1] | Structure (SMILES) |
| --- | --- | --- |
| 1860 |  | CC(C)C[C@@H](NC(=O)COCCOCCNC(=O)[C@@]1(O)[C@H](C)C[C@H]2[C@@H]3CCC4=CC(=O)C=C[C@]4(C)[C@@]3(F)[C@@H](O)C[C@@]21C)C(=O)N[C@H](CO)C(=O)N[C@H](Cc1ccccc1)C(N)=O |
| 33 | 80 | CC(C)C[C@]1(CCO)C[C@H](CNC(=O)COCCOCCNC(=O)[C@@]2(O)[C@H](C)C[C@H]3[C@@H]4CCC5=CC(=O)C=C[C@]5(C)[C@@]4(F)[C@@H](O)C[C@@]32C)ON1Cc1ccccc1 |
| 2500 |  | CC(C)C[C@](CCO)(C[C@H](O)CNC(=O)COCCOCCNC(=O)[C@@]1(O)[C@H](C)C[C@H]2[C@@H]3CCC4=CC(=O)C=C[C@]4(C)[C@@]3(F)[C@@H](O)C[C@@]21C)NCc1ccccc1 |
